Experimental data: paper PMC7401273, “Unexpected Enhancement of HDACs Inhibition by MeS Substitution at C-2 Position of Fluoro Largazole” (Marine Drugs, 2020)
Read-outs that look alike come from different tables or passages of the source.

Assays:
A549 cells = experiment: in vitro growth inhibition (MTT), A549 cells; assay type: cell-based; settings: Homo sapiens, 72 h, at least seven-dose, duplicate
Procedure: (§1) Eca-109, Bel 7402 and U937 cell lines were purchased from ATCC (Manassas, VA, USA), and the other tested cell lines were obtained from the Shanghai Institute for Biological Sciences, Chinese Academy of Sciences (Shanghai, China). MDA-MB-231, Hela, Eca-109 and Bel 7402 cells were cultured in DMEM medium supplemented with 10% heat-inactivated fetal bovine serum, 100 U/mL penicillin and 100 μg/mL streptomycin (Beyotime Biotech, Shanghai, China). A549 cells were cultured in F-12K medium supplemented with 10% heat-inactivated fetal bovine serum, 100 U/mL penicillin and 100 μg/mL streptomycin. HCT116 and SK-OV-3 cells were cultured in McCoy’s 5A medium supplemented with 10% heat-inactivated fetal bovine serum, 100 U/mL penicillin and 100 μg/mL streptomycin. U937 cells were cultured in RPMI-1640 medium supplemented with 10% heat inactivated fetal bovine serum, 100 U/mL penicillin and 100 μg/mL streptomycin. All cells were cultured at 37 °C in humidified air containing 5% CO2. According to our previous method, A549, HCT116, MDA-MB-231, SK-OV-3, Hela, Eca-109, Bel 7403 and U937 (600,000 cells/well) were seeded in 96-well plates and incubated for 24 h before being treated with various concentration of compounds or solvent control. Cells were further incubated for 72 h and then treated with MTT and incubated for another 3 h. The media was then removed and 100 μL DMSO was added to each well. The absorbance at 550 nm was measured by a SpectraMAX340 microplate reader (Molecular Devices, San Jose, CA, USA) with a reference wavelength at 690 nm. Adriamycin was used as a positive control in the assay.

HCT116 cells = experiment: in vitro growth inhibition (MTT), HCT116 cells; assay type: cell-based; settings: Homo sapiens, HCT-116, 72 h, at least seven-dose, duplicate
Procedure: as §1

MDA-MB-231 cells = experiment: in vitro growth inhibition (MTT), MDA-MB-231 cells; assay type: cell-based; settings: Homo sapiens, 72 h, at least seven-dose, duplicate
Procedure: as §1

SK-OV-3 cells = experiment: in vitro growth inhibition (MTT), SK-OV-3 cells; assay type: cell-based; settings: Homo sapiens, 72 h, at least seven-dose, duplicate
Procedure: as §1

Hela cells = experiment: in vitro growth inhibition (MTT), Hela cells; assay type: cell-based; settings: Homo sapiens, 72 h, at least seven-dose, duplicate
Procedure: as §1, with “Cells were further incubated for 72 h and then treated with MTT and incubated for another 3 h. The media was then removed and 100 μL DMSO was added to each well.” left out, “Adriamycin was used as a positive control in the assay.” left out

Eca-109 cells = experiment: in vitro growth inhibition (MTT), Eca-109 cells; assay type: cell-based; settings: Homo sapiens, 72 h, at least seven-dose, duplicate
Procedure: as §1, with “Cells were further incubated for 72 h and then treated with MTT and incubated for another 3 h. The media was then removed and 100 μL DMSO was added to each well.” left out, “Adriamycin was used as a positive control in the assay.” left out

Bel 7402 cells = experiment: in vitro growth inhibition (MTT), Bel 7402 cells; assay type: cell-based; settings: Homo sapiens, 72 h, at least seven-dose, duplicate
Procedure: as §1, with “Cells were further incubated for 72 h and then treated with MTT and incubated for another 3 h. The media was then removed and 100 μL DMSO was added to each well.” left out, “Adriamycin was used as a positive control in the assay.” left out

U937 cells = experiment: in vitro growth inhibition (MTT), U937 cells; assay type: cell-based; settings: Homo sapiens, U-937, 72 h, at least seven-dose, duplicate
Procedure: as §1, with “Cells were further incubated for 72 h and then treated with MTT and incubated for another 3 h. The media was then removed and 100 μL DMSO was added to each well.” left out, “Adriamycin was used as a positive control in the assay.” left out

[1] = tested on: A549, HCT116 and SK-OV-3 cells; experiment: in vitro growth inhibition (MTT), range over three cell lines; assay type: cell-based; settings: towards A549, HCT116 and SK-OV-3 cells
Procedure: as §1, with “Cells were further incubated for 72 h and then treated with MTT and incubated for another 3 h. The media was then removed and 100 μL DMSO was added to each well.” left out, “Adriamycin was used as a positive control in the assay.” left out

recombinant human HDAC1 [2] = target: T1, recombinant human HDAC1 (Homo sapiens, UniProt Q13547); parameters: method as in PMID 31163697; settings: previously reported data, cited from earlier work; for Selectivity (HDAC1/6): selectivity of HDAC1 over HDAC6
T1 construct: purchased BPS Biosciences

recombinant human HDAC2 [3] = target: T2, recombinant human HDAC2 (Homo sapiens, UniProt Q92769); parameters: method as in PMID 31163697; settings: previously reported data; cited from earlier work
T2 construct: purchased BPS Biosciences

recombinant human HDAC3 [4] = target: T3, recombinant human HDAC3 (Homo sapiens, UniProt O15379); parameters: method as in PMID 31163697; settings: previously reported data; cited from earlier work
T3 construct: purchased BPS Biosciences

recombinant human HDAC8 [5] = target: T4, recombinant human HDAC8 (Homo sapiens, UniProt Q9BY41); parameters: method as in PMID 31163697; settings: previously reported data; cited from earlier work
T4 construct: purchased BPS Biosciences
T4 sequence (Q9BY41 1-377): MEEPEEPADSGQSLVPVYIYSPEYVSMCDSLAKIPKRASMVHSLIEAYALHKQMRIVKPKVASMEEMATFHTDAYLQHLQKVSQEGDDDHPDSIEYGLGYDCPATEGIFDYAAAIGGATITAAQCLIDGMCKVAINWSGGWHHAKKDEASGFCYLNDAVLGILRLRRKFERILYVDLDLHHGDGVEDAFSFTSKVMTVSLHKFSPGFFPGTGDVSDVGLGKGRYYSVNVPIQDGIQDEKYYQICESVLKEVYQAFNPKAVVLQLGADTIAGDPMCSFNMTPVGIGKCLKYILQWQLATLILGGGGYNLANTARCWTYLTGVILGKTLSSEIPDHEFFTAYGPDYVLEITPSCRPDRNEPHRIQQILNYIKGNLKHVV

recombinant human HDAC6 [6] = target: T5, recombinant human HDAC6 (Homo sapiens, UniProt Q9UBN7); parameters: method as in PMID 31163697; settings: previously reported data; cited from earlier work
T5 construct: purchased BPS Biosciences
T5 sequence (Q9UBN7 1-1215): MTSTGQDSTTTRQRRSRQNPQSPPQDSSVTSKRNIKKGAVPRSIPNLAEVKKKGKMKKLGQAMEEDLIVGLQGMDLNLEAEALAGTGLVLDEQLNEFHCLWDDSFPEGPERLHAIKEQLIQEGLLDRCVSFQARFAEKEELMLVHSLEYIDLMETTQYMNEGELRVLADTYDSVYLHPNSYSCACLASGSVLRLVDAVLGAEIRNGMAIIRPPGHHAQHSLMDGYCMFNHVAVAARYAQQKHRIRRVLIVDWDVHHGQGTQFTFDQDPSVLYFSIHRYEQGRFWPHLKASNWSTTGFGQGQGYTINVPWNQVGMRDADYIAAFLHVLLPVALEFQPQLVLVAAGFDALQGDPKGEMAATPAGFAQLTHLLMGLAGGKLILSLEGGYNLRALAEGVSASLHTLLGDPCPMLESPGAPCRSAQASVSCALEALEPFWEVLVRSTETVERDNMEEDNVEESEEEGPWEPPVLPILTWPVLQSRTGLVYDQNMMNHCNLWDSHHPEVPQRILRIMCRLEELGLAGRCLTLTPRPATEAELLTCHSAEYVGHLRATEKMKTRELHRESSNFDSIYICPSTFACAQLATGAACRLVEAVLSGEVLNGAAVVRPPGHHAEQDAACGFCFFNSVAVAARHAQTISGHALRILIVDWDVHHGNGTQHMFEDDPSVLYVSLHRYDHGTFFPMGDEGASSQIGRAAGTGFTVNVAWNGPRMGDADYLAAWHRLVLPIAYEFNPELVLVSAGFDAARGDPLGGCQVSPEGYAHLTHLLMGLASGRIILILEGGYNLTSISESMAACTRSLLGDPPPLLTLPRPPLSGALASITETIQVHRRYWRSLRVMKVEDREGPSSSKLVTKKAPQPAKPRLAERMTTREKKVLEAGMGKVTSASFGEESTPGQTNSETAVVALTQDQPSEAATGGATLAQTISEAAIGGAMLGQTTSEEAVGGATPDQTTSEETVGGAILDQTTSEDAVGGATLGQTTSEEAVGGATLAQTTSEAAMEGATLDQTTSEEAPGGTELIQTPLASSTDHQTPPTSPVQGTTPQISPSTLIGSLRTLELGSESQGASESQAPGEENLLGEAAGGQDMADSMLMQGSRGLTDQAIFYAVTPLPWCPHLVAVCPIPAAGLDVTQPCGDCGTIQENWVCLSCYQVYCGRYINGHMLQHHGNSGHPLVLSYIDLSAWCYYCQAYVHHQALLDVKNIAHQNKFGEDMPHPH

recombinant human HDAC1 [7] = target: T1, recombinant human HDAC1; experiment: recombinant human HDAC1 enzymatic assay; assay type: biochemical; settings: 10-dose IC50 mode in duplicate, three-fold serial dilution
Procedure: (§2) The assays were carried out by Shanghai ChemPartner Co., Ltd (Shanghai, China), according to our previous method. Briefly, different concentrations of compounds were incubated with recombinant human HDAC1, HDAC2, HDAC3, HDAC6 and HDAC8 (BPS Biosciences, San Diego, CA, USA) at room temperature for 15 min, which was followed by adding Ac-peptide-AMC substrates to initiate the reaction in Tris-based assay buffer. Reaction mixtures were incubated at room temperature for 60 min in HDAC1, HDAC2, HDAC3 and HDAC6 assays, and were incubated for 240 min in HDAC8 assay. Then, the stop solution containing trypsin was added. The coupled reaction was incubated for another 90 min at 37 °C. Fluorescent AMC released from substrate was measured in SynergyMx (BioTek, Winooski, VT, US) using filter sets as excitation = 355 nm and emission = 460 nm. IC50 values were calculated by GraphPad Prism software (7.0 version., GraphPad Software, San Diego, CA, USA).

recombinant human HDAC2 [8] = target: T2, recombinant human HDAC2; experiment: recombinant human HDAC2 enzymatic assay; assay type: biochemical; settings: 10-dose IC50 mode in duplicate, three-fold serial dilution
Procedure: The assays were carried out by Shanghai ChemPartner Co., Ltd (Shanghai, China), according to our previous method [23, 24]. Briefly, different concentrations of compounds were incubated with recombinant human HDAC1, HDAC2, HDAC3, HDAC6 and HDAC8 (BPS Biosciences, San Diego, CA, USA) at room temperature for 15 min, which was followed by adding Ac-peptide-AMC substrates to initiate the reaction in Tris-based assay buffer. Reaction mixtures were incubated at room temperature for 60 min in HDAC1, HDAC2, HDAC3 and HDAC6 assays, and were incubated for 240 min in HDAC8 assay. Then, the stop solution containing trypsin was added. The coupled reaction was incubated for another 90 min at 37 °C. Fluorescent AMC released from substrate was measured in SynergyMx (BioTek, Winooski, VT, US) using filter sets as excitation = 355 nm and emission = 460 nm. IC50 values were calculated by GraphPad Prism software (7.0 version., GraphPad Software, San Diego, CA, USA).

recombinant human HDAC3 [9] = target: T3, recombinant human HDAC3; experiment: recombinant human HDAC3 enzymatic assay; assay type: biochemical; settings: 10-dose IC50 mode in duplicate, three-fold serial dilution
Procedure: as §2

recombinant human HDAC8 [10] = target: T4, recombinant human HDAC8; experiment: recombinant human HDAC8 enzymatic assay; assay type: biochemical; settings: 10-dose IC50 mode in duplicate, three-fold serial dilution
Procedure: as §2

recombinant human HDAC6 [11] = target: T5, recombinant human HDAC6; experiment: recombinant human HDAC6 enzymatic assay; assay type: biochemical; settings: 10-dose IC50 mode in duplicate, three-fold serial dilution
Procedure: as §2

T2 sequence (Q92769 whole entry): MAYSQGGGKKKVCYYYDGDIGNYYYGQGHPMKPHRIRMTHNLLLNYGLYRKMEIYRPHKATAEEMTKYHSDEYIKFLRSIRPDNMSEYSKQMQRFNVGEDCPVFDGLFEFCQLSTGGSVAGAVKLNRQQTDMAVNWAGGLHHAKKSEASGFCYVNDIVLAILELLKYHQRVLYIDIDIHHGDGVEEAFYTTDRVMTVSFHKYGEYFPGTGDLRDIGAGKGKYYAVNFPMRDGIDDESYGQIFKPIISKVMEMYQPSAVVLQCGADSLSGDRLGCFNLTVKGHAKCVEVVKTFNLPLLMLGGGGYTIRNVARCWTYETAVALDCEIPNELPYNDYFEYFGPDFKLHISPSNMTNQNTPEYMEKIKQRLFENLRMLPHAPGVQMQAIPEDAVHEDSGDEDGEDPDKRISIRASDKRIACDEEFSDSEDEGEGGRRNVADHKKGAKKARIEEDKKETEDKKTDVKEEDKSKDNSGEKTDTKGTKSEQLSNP
T1 sequence (Q13547 whole entry): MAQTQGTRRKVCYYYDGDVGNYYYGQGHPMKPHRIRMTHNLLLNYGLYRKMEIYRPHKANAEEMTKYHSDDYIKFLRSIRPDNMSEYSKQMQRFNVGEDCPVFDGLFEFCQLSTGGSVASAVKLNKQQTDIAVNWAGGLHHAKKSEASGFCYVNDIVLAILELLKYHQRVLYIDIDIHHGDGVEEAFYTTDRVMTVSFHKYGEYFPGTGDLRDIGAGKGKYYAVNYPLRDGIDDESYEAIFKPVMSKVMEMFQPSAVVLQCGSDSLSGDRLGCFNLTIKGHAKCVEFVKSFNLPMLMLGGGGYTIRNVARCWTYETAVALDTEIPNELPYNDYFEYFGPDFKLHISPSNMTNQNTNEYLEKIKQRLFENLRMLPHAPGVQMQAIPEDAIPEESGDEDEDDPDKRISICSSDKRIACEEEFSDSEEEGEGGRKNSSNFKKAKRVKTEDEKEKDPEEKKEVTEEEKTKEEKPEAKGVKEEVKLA
T3 sequence (O15379 whole entry): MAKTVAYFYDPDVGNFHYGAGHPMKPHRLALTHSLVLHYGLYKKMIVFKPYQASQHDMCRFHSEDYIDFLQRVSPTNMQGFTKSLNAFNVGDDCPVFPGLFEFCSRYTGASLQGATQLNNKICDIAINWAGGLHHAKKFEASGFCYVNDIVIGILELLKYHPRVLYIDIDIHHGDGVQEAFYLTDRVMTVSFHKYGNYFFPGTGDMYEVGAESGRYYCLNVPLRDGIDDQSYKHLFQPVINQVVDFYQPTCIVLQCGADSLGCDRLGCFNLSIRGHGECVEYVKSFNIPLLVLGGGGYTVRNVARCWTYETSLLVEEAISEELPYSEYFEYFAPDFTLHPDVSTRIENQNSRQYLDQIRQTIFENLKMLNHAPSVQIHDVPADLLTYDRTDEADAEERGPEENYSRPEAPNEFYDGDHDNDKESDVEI
T3 sequence (Q9Y618 395-489 partner limits assumed): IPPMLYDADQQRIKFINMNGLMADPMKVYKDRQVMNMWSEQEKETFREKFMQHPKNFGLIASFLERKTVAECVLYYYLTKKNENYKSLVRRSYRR

Row | Compound | IC50 (A549 cells) [nM] | IC50 (HCT116 cells) [nM] | IC50 (MDA-MB-231 cells) [nM] | IC50 (SK-OV-3 cells) [nM] | IC50 (Hela cells) [nM] | IC50 (Eca-109 cells) [nM] | IC50 (Bel 7402 cells) [nM] | IC50 (U937 cells) [nM] | IC50 (recombinant human HDAC1 [2]) [nM] | Selectivity (HDAC1/6) (recombinant human HDAC1 [2]) | IC50 (recombinant human HDAC2 [3]) [nM] | IC50 (recombinant human HDAC3 [4]) [nM] | IC50 (recombinant human HDAC8 [5]) [nM] | IC50 (recombinant human HDAC6 [6]) [nM] | also measured
1 | CCCCCCCC(=O)SCC/C=C(\F)[C@@H]1CC(=O)NCc2nc(cs2)C2=N[C@@](C)(CS2)C(=O)N[C@@H](CSC)C(=O)O1 [Compound 16c, S-((Z)-4-fluoro-4-((1^2Z,2^2Z,2^4R,5R,8S)-2^4-methyl-5-((methylthio)methyl)-3,6,10-trioxo-2^4,2^5-dihydro-7-oxa-4,11-diaza-1(4,2),2(2,4)-dithiazolacyclododecaphane-8-yl)but-3-en-1-yl) octanethioate] | 2920 ± 530 | 1410 ± 540 | > 10000 | 3130 ± 500 | 100 ± 10 | 90 ± 20 | 250 ± 70 | 80 ± 20 |  |  |  |  |  |  | IC50 [1]: 1410 to 3130 nM
2 | CC12CSC(=N1)c1csc(n1)CNC(=O)CC(C(F)=CCCS)OC(=O)C(Cc1ccccc1)NC2=O (centres unmarked) [Compound 15b] |  |  |  |  |  |  |  |  | 4.24 ± 0.38 | 80 | 16.3 ± 0.4 | 37.1 ± 0.8 | 17.5 ± 4.2 | 338 ± 17 | 
3 | CSCC1NC(=O)C2(C)CSC(=N2)c2csc(n2)CNC(=O)CC(C(F)=CCCS)OC1=O [Compound 15c, (1^2Z,2^2Z,2^4R,8S)-8-((Z)-1-fluoro-4-mercaptobut-1-en-1-yl)-2^4-methyl-5-((methylthio)methyl)-2^4,2^5-dihydro-7-oxa-4,11-diaza-1(4,2),2(2,4)-dithiazolacyclododecaphane-3,6,10-trione] |  |  |  |  |  |  |  |  |  |  |  |  |  |  | IC50 (recombinant human HDAC1 [7]): 0.27 ± 0.02 nM; IC50 (recombinant human HDAC2 [8]): 1.33 ± 0.02 nM; IC50 (recombinant human HDAC3 [9]): 2.33 ± 0.15 nM; IC50 (recombinant human HDAC8 [10]): 0.44 ± 0.16 nM; IC50 (recombinant human HDAC6 [11]): 23.9 nM
4 | CCCCCCCC(=O)SCC/C=C/[C@@H]1CC(=O)NCc2nc(cs2)C2=N[C@@](C)(CS2)C(=O)N[C@@H](C(C)C)C(=O)O1 [largazole] | 520 ± 170 | 110 ± 10 | 4750 ± 1950 | 250 ± 170 | 170 ± 10 | 100 | 170 ± 20 | 20 |  |  |  |  |  |  | 
5 | CC(C)C1NC(=O)C2(C)CSC(=N2)c2csc(n2)CNC(=O)CC(C(F)=CCCS)OC1=O (centres unmarked) [Compound 15a] |  |  |  |  |  |  |  |  | 4.39 ± 0.17 | 68 | 21 ± 0.3 | 39.2 ± 2.3 | 8.38 ± 2.46 | 300 ± 5 | 
6 | CCCCCCCC(=O)SCC/C=C(\F)[C@@H]1CC(=O)NCc2nc(cs2)C2=N[C@@](C)(CS2)C(=O)NCC(=O)O1 [Compound 16d, S-((Z)-4-fluoro-4-((1^2Z,2^2Z,2^4R,8S)-2^4-methyl-3,6,10-trioxo-2^4,2^5-dihydro-7-oxa-4,11-diaza-1(4,2),2(2,4)-dithiazolacyclododecaphane-8-yl)but-3-en-1-yl) octanethioate] | > 10000 | 6620 ± 1860 | > 10000 | > 10000 |  |  |  |  |  |  |  |  |  |  | 
